The target in test [1] is Tyro3 (Homo sapiens (Human), UniProt Q06418). Nature of the test: TAM Enzymatic Assay (HTRF), Tyro3. The class given is biochemical. The settings on record: Tyro3, 60 min, room temperature. The method, then:
(§1) The kinase assay buffer contained 50 mM HEPES, pH7.5, 10 mM MgCl2, 1 mM EGTA, 0.01% NP-40 and 2 mM DTT. 0.1 ul test compounds dissolved in DMSO were transferred from compound plates to white 384-well assay plates (Greiner […] plates). […] 4 ul enzyme solution (or assay buffer for the enzyme blank) was added to the appropriate wells in each plate, and then 4 ul/well substrate solution was added to initiate the reaction. The plate was protected from light and incubated at room temperature for 60 min. […] The plate was incubated for 1 h at room temperature, and HTRF (homogenous time resolved fluorescence) signal was measured on a PHERAstar FS plate reader (BMG labtech). Percentage of inhibition was calculated for each concentration and IC50 value was generated from curve fitting with GraphPad Prism software.

The target of test [2] is phosphor-Axl (Homo sapiens (Human), UniProt P30530). Nature of the test: TAM Enzymatic Assay (HTRF), Axl. The class given is biochemical. The conditions noted are these: recombinant autophosphorylated Axl, 60 min, room temperature. The method, then:
Autophosphorylation of Axl was carried out by incubating the recombinant Axl protein (Life Technologies, PV4275) in buffer containing 50 mM Tris, pH7.5, 0.2 mg/ml Axl, 5 mM ATP, 20 mM MgCl2 and 2 mM DTT at room temperature for 1 hour.
as §1

Sequence of phosphor-Axl (P30530 26-894): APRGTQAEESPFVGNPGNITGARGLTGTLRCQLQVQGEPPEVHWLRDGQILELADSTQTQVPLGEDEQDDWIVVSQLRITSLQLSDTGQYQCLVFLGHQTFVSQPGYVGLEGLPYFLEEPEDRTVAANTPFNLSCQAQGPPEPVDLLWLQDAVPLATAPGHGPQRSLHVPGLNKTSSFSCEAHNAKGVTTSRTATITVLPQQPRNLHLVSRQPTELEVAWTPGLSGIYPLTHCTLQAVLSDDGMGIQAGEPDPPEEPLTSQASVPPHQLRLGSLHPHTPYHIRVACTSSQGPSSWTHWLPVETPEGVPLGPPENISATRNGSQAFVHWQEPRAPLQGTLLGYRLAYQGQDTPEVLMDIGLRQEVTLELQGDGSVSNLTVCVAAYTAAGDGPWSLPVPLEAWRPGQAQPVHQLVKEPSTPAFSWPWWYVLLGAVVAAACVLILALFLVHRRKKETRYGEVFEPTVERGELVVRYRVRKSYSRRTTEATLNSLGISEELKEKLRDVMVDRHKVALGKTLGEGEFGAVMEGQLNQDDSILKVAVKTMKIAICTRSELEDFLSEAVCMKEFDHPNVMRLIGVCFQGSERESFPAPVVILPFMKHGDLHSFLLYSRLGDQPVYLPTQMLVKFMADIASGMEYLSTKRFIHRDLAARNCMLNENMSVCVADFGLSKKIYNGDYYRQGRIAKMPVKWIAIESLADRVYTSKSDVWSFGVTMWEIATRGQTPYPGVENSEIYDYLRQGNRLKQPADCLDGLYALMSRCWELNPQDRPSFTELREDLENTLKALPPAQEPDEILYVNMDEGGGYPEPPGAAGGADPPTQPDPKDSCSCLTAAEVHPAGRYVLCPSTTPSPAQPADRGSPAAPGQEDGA
Sequence of Tyro3 (Q06418 41-890): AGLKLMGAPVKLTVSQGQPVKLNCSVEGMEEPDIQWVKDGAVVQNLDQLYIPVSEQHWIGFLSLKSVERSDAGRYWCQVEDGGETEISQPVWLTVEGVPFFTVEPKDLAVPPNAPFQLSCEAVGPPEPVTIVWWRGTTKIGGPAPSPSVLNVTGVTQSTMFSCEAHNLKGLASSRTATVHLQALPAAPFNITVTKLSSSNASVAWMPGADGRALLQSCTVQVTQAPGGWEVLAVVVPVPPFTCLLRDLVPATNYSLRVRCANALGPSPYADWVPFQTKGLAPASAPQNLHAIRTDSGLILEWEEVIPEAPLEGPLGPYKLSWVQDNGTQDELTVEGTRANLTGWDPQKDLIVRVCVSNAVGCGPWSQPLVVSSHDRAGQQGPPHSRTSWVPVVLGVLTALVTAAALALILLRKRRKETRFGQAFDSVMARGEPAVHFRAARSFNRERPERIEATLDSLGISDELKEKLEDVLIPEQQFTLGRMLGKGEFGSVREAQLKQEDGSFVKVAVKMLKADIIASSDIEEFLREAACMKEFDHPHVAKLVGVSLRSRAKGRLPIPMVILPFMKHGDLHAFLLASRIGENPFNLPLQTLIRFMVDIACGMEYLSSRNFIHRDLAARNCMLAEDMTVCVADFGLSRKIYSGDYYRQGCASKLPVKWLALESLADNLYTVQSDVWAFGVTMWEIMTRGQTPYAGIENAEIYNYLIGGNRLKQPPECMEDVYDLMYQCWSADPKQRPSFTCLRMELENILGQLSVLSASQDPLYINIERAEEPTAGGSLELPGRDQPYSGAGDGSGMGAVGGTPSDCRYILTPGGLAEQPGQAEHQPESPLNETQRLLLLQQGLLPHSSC

On to `CCN(C)C(=O)N1CCC(c2cc(-c3ccc(NC(=O)c4cc5c(n(-c6ccc(F)cc6)c4=O)CCCC5=O)cc3F)c3c(N)ncnn23)CC1` [Example 58, N-{4-[4-Amino-7-(1-{[ethyl(methyl)amino]carbonyl}piperidin-4-yl)pyrrolo[2,1-f][1,2,4]triazin-5-yl]-3-fluorophenyl}-1-(4-fluorophenyl)-2,5-dioxo-1,2,5,6,7,8-hexahydroquinoline-3-carboxamide], for which the IC50 is greater than 100 nM in test [1] and no more than 5 nM in test [2].
For `Cc1c(-c2ccnn2C)cc(C(=O)Nc2ccc(-c3cc(C4CCN(C(=O)C(C)C)CC4)n4ncnc(N)c34)cc2)c(=O)n1-c1cccnc1` [Example 134, N-(4-(4-Amino-7-(1-isobutyrylpiperidin-4-yl)pyrrolo[2,1-f][1,2,4]triazin-5-yl)phenyl)-6-methyl-5-(1-methyl-1H-pyrazol-5-yl)-2-oxo-2H-[1,3′-bipyridine]-3-carboxamide], in that order: greater than 100 nM and no more than 5 nM.
For `CC(C)C(=O)N1CCC(c2cc(-c3ccc(NC(=O)c4cc5c(n(-c6cncc(F)c6)c4=O)CCC(C)(C)C5=O)cc3)c3c(N)ncnn23)CC1` [Example 115, N-(4-(4-Amino-7-(1-isobutyrylpiperidin-4-yl)pyrrolo[1,2-f][1,2,4]triazin-5-yl)phenyl)-1-(5-fluoropyridin-3-yl)-6,6-dimethyl-2,5-dioxo-1,2,5,6,7,8-hexahydroquinoline-3-carboxamide], in that order: greater than 100 nM and no more than 5 nM.
For `Cc1cc(NC(=O)c2cn(C(C)C)c(=O)n(-c3ccccc3)c2=O)ccc1-c1cc(C2CCN(C(=O)C(C)C)CC2)n2ncnc(N)c12` [Example 77, N-(4-(4-Amino-7-(1-isobutyrylpiperidin-4-yl)pyrrolo[1,2-f][1,2,4]triazin-5-yl)-3-methylphenyl)-1-isopropyl-2,4-dioxo-3-phenyl-1,2,3,4-tetrahydropyrimidine-5-carboxamide], in that order: greater than 100 nM and no more than 5 nM.
In the case of `CCn1cc(C(=O)Nc2ccc(-c3cc(C4CCN(C(=O)C(C)C)CC4)n4ncnc(N)c34)cc2)c(=O)n(-c2cccc(F)c2)c1=O` [Example 73, N-(4-(4-Amino-7-(1-isobutyrylpiperidin-4-yl)pyrrolo[1,2-f][1,2,4]triazin-5-yl)phenyl)-1-ethyl-3-(3-fluorophenyl)-2,4-dioxo-1,2,3,4-tetrahydropyrimidine-5-carboxamide], the IC50 in test [1] is greater than 100 nM; in test [2], no more than 5 nM.
On to `CCOCc1c(C#N)cc(C(=O)Nc2ccc(-c3cc(C4CCN(C(=O)C(C)C)CC4)n4ncnc(N)c34)cc2)c(=O)n1-c1ccccc1` [Example 137, N-(4-(4-Amino-7-(1-isobutyrylpiperidin-4-yl)pyrrolo[2,1-f][1,2,4]triazin-5-yl)phenyl)-5-cyano-6-(ethoxymethyl)-2-oxo-1-phenyl-1,2-dihydropyridine-3-carboxamide], for which the IC50 is greater than 100 nM in test [1] and no more than 5 nM in test [2].
`CC(C)n1cc(C(=O)Nc2ccc(-c3cc(C4CN(C(=O)C5CC5)C4)n4ncnc(N)c34)cc2)c(=O)n(-c2ccccc2)c1=O` [Example 94, N-(4-(4-amino-7-(1-(cyclopropanecarbonyl)azetidin-3-yl)pyrrolo[2,1-f][1,2,4]triazin-5-yl)phenyl)-1-isopropyl-2,4-dioxo-3-phenyl-1,2,3,4-tetrahydropyrimidine-5-carboxamide]: the IC50 in test [1] is greater than 100 nM; in test [2], no more than 5 nM.
As to `CCN(C)C(=O)N1CCC(c2cc(-c3ccc(NC(=O)c4cc5c(n(-c6ccc(F)cc6)c4=O)CCCC5=O)cc3)c3c(N)ncnn23)CC1` [Example 57, N-{4-[4-Amino-7-(1-{[ethyl(methyl)amino]carbonyl}piperidin-4-yl)pyrrolo[2,1-f][1,2,4]triazin-5-yl]phenyl}-1-(4-fluorophenyl)-2,5-dioxo-1,2,5,6,7,8-hexahydroquinoline-3-carboxamide], the results for the IC50 in test [1] and in test [2] were greater than 100 nM and no more than 5 nM, respectively.
For `Cc1c(Cl)cc(C(=O)Nc2ccc(-c3cc(C4CCN(C(=O)C(C)C)CC4)n4ncnc(N)c34)cc2)c(=O)n1-c1ccccn1` [Example 124, N-(4-(4-Amino-7-(1-isobutyrylpiperidin-4-yl)pyrrolo[2,1-f][1,2,4]triazin-5-yl)phenyl)-5-chloro-6-methyl-2-oxo-2H-[1,2′-bipyridine]-3-carboxamide], in that order: greater than 100 nM and no more than 5 nM.
The corresponding values for `Cc1c(-c2cnn(C)c2)cc(C(=O)Nc2ccc(-c3cc(C4CCN(C(=O)C(C)C)CC4)n4ncnc(N)c34)cc2)c(=O)n1-c1cccnc1` [Example 133, N-(4-(4-Amino-7-(1-isobutyrylpiperidin-4-yl)pyrrolo[2,1-f][1,2,4]triazin-5-yl)phenyl)-6-methyl-5-(1-methyl-1H-pyrazol-4-yl)-2-oxo-2H-[1,3′-bipyridine]-3-carboxamide] are greater than 100 nM and no more than 5 nM.
The corresponding values for `CC(C)C(=O)N1CCC(c2cc(-c3ccc(NC(=O)c4cn(C(C)C)c(=O)n(-c5cc(F)ccc5F)c4=O)cc3)c3c(N)ncnn23)CC1` [Example 76, N-(4-(4-Amino-7-(1-isobutyrylpiperidin-4-yl)pyrrolo[1,2-f][1,2,4]triazin-5-yl)phenyl)-3-(2,5-difluorophenyl)-1-isopropyl-2,4-dioxo-1,2,3,4-tetrahydropyrimidine-5-carboxamide] are greater than 100 nM and no more than 5 nM.
With `CC(C)C(=O)N1CCC(c2cc(-c3ccc(NC(=O)c4cn(C(C)C)cc(-c5cccnc5)c4=O)cc3)c3c(N)ncnn23)CC1` [Example 128, N-(4-(4-Amino-7-(1-isobutyrylpiperidin-4-yl)pyrrolo[1,2-f][1,2,4]triazin-5-yl)phenyl)-1-isopropyl-4-oxo-5-(pyridin-3-yl)-1,4-dihydropyridine-3-carboxamide], the IC50 in test [1] is greater than 100 nM; in test [2], no more than 5 nM.
On to `CC(C)n1cc(C(=O)Nc2ccc(-c3cc(CN4CCOCC4)n4ncnc(N)c34)cc2)c(=O)n(-c2ccccc2)c1=O` [Example 95, N-(4-(4-Amino-7-(morpholinomethyl)pyrrolo[1,2-f][1,2,4]triazin-5-yl)phenyl)-1-isopropyl-2,4-dioxo-3-phenyl-1,2,3,4-tetrahydropyrimidine-5-carboxamide], for which the values for the IC50 in test [1] and in test [2] were greater than 100 nM and no more than 5 nM, respectively.
The corresponding values for `Cc1cc(-n2c(=O)c(C(=O)Nc3ccc(-c4cc(C5CCN(C(=O)C(C)C)CC5)n5ncnc(N)c45)cc3)cn(C(C)C)c2=O)nn1C` [Example 148, N-(4-(4-Amino-7-(1-isobutyrylpiperidin-4-yl)pyrrolo[1,2-f][1,2,4]triazin-5-yl)phenyl)-3-(1,5-dimethyl-1H-pyrazol-3-yl)-1-isopropyl-2,4-dioxo-1,2,3,4-tetrahydropyrimidine-5-carboxamide] are greater than 100 nM and no more than 5 nM.
The corresponding values for `CCN(C)C(=O)N1CCC(c2cc(-c3ccc(NC(=O)c4cn(C(C)C)c(=O)n(-c5ccccc5F)c4=O)cc3)c3c(N)ncnn23)CC1` [Example 69, N-(4-(4-Amino-7-(1-(ethyl(methyl)carbamoyl)piperidin-4-yl)pyrrolo[1,2-f][1,2,4]triazin-5-yl)phenyl)-3-(2-fluorophenyl)-1-isopropyl-2,4-dioxo-1,2,3,4-tetrahydropyrimidine-5-carboxamide] are greater than 100 nM and no more than 5 nM.
The corresponding values for `CC(C)C(=O)N1CCC(c2cc(-c3ccc(NC(=O)c4cn(C(C)C)c(=O)n(-c5cccc(C#N)c5)c4=O)cc3)c3c(N)ncnn23)CC1` [Example 91, N-(4-(4-Amino-7-(1-isobutyrylpiperidin-4-yl)pyrrolo[2,1-f][1,2,4]triazin-5-yl)phenyl)-3-(3-cyanophenyl)-1-isopropyl-2,4-dioxo-1,2,3,4-tetrahydropyrimidine-5-carboxamide] are greater than 100 nM and no more than 5 nM.
Regarding `Cc1c(-c2ccnn2C)cc(C(=O)Nc2ccc(-c3cc(C4CCN(C(=O)C(C)C)CC4)n4ncnc(N)c34)cc2)c(=O)n1-c1ccccn1` [Example 123, N-(4-(4-Amino-7-(1-isobutyrylpiperidin-4-yl)pyrrolo[2,1-f][1,2,4]triazin-5-yl)phenyl)-6-methyl-5-(1-methyl-1H-pyrazol-5-yl)-2-oxo-2H-[1,2′-bipyridine]-3-carboxamide], the IC50 was greater than 100 nM in test [1] and no more than 5 nM in test [2].
The corresponding values for `CC(C)C(=O)N1CCC(c2cc(-c3ccc(NC(=O)c4cn(C(C)C)cc(-c5cncc(F)c5)c4=O)cc3)c3c(N)ncnn23)CC1` [Example 129, N-(4-(4-amino-7-(1-isobutyrylpiperidin-4-yl)pyrrolo[1,2-f][1,2,4]triazin-5-yl)phenyl)-5-(5-fluoropyridin-3-yl)-1-isopropyl-4-oxo-1,4-dihydropyridine-3-carboxamide] are greater than 100 nM and no more than 5 nM.
For `Nc1ncnn2c(C3CCN(CCO)CC3)cc(-c3ccc(NC(=O)c4cc5c(n(-c6ccc(F)cc6)c4=O)CCCC5=O)cc3)c12` [Example 59, N-(4-{4-Amino-7-[1-(2-hydroxyethyl)piperidin-4-yl]pyrrolo[2,1-f][1,2,4]triazin-5-yl}phenyl)-1-(4-fluorophenyl)-2,5-dioxo-1,2,5,6,7,8-hexahydroquinoline-3-carboxamide], the IC50 in test [1] was greater than 100 nM; in test [2], no more than 5 nM.

Source of the values: patent US9981975B2, “Pyrrolotriazine compounds as tam inhibitors” (Incyte Corporation, priority 2016, dated 2018).
